# According to PMC5603603, “Linoleic and palmitoleic acid block streptokinase-mediated plasminogen activation and reduce severity of invasive group A streptococcal infection” (Scientific Reports, 2017):
# “And” between values parts separate entries of the source, which are not always exact repeats. Identical values can stand only once.
# Columns and labels:
# [1] = system: S. pyogenes strain AP1; experiment: Invasive humanized plasminogen murine infection model; type: in vivo, Humanized Plg transgenic AlbPLG1 mice; conditions: 50 µg s.c. (approx. 2 mg/kg) once on day of infection; for Hazard ratio (Mantel-Haenszel) treated/untreated: 1 × 10^7 cfu AP1 s.c.; for survival time in comparison with the untreated group: p = 0.0021
# Description: All animal experiments were performed in strict accordance with the guidelines of the “European Convention for the Protection of Vertebrate Animals used for Experimental and other Scientific purposes”, with the “Australian Code of Practice for the Care and Use of Animals for Scientific Purposes” and with the “Guidelines for the Care and Use of Laboratory Animals” (National Health and Medical Research Council, Australia). All experiments conducted in Germany were approved by the ethical board of “Niedersächsisches Landesamt für Verbraucherschutz und Lebensmittelsicherheit”, Oldenburg, Germany (animal ethics no.: 33.9-42502-04-12/1009). All experiments conducted in Australia were approved by the University of Queensland Animal Ethics Committee, Brisbane, Australia (animal ethics no.: SCMB/ 553/12/NHMRC). Humanized Plg transgenic AlbPLG1 mice, heterozygous for the human Plg gene[6], were bred and used in the animal facility at the Helmholtz Centre for Infection Research or at the Australian Infectious Disease Research Centre. An overnight culture of the strain AP1 (in THY medium) was re-inoculated in fresh THY medium and grown until mid-log phase (OD 0.4–0.6). Then the bacteria were centrifuged at 4332 × g for 10 min and washed twice in PBS. They were resuspended in PBS and adjusted to an OD of 1.0. Sex- and age-matched (eight- to sixteen-week-old) groups of C57Bl6/J huPlg positive transgenic mice were infected s.c. with 1 × 10^7 cfu of S. pyogenes strain AP1. Cohorts of 15–16 mice were used (the experiment was performed four times with cohorts of 3–5 mice). The specific inoculum dose was administered in a 100 µl volume. Untreated mice received PBS subcutaneously (s.c.) as a control on the day of infection. Treated mice received either 50 µg of linoleic acid (diluted in PBS) or 50 µg of palmitoleic acid (diluted in PBS) s.c. on the day of infection. During the experiment mice were monitored for locomotion, behavior, appearance and weight. Mice were euthanized when they lost more than 20% of weight or when they reached a score of two for three of the following parameters: locomotion, appearance or behavior (authority regulations). The experiment ended after 7 days or after all mice had died.
# Significance was determined by using a two-tailed, paired student’s t-test. Survival data were analyzed using GraphPad Prism7 Software. Significance was determined by using a Mantel-Cox- and a Wilcoxon-Test.
# [2] = molecular target: cluster 1 type streptokinase (Streptococcus pyogenes, UniProt P10520); type: biochemical, group A streptococcal strain A328; conditions: supernatant-based; for IC50: cluster 1; for fold lower IC50-values than TXA and EACA: cluster 1 type streptokinase
# Chain of cluster 1 type streptokinase (P00747 20-810): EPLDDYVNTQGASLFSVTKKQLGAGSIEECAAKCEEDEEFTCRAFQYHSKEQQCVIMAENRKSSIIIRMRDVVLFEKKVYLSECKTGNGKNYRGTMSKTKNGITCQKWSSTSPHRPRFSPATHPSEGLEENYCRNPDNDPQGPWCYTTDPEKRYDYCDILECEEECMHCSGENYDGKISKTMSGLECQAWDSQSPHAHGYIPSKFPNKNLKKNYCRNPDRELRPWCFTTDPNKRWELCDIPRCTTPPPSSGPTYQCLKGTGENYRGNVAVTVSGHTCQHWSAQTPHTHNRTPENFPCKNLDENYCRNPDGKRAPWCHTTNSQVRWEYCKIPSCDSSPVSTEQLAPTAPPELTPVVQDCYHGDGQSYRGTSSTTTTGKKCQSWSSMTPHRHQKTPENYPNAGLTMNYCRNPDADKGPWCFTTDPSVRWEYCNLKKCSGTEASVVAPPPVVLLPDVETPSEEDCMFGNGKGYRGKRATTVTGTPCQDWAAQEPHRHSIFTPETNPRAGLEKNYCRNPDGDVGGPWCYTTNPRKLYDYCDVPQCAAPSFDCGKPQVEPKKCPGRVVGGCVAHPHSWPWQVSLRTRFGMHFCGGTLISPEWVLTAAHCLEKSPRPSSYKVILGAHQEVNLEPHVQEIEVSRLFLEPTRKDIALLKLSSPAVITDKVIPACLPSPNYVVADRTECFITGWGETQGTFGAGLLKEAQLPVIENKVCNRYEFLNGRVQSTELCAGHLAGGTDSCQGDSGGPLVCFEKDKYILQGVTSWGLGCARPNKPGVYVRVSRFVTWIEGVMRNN
# Chain of cluster 1 type streptokinase (P10520 27-440): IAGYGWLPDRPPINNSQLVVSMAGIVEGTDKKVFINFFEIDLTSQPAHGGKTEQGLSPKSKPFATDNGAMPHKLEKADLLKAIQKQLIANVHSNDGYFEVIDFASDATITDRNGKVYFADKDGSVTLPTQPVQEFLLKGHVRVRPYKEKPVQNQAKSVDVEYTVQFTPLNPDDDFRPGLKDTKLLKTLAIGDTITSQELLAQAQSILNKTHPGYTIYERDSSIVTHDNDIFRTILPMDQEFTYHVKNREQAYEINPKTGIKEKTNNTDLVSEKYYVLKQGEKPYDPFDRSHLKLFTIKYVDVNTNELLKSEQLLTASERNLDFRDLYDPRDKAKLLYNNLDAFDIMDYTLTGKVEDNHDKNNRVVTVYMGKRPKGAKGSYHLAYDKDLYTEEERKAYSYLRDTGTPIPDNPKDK
# Description: An overnight culture of the strain A328 (cluster 1 type) or A614 (cluster 2a type) was diluted 1:10 in pre-warmed THY medium and grown to an OD600 of around 0.5 at 37 °C. […] The pellet was resuspended in Tris-HCl buffer (50 mM Tris pH 7.5). Then inhibitory compounds (LA, PA, oleic, myristic, stearic, palmitic, arachidonic, arachidic, linolenic acid, TXA or EACA) were added. Stocks of TXA and EACA were prepared in PBS. Stocks of LA and PA were prepared in methanol and then diluted in PBS. Stocks of arachidic, oleic, arachidonic, myristic, palmitic, stearic and linolenic acid were prepared in 60% DMSO/PBS and then diluted in PBS. The untreated control received the same amount of PBS as in case of TXA and EACA as control or the same amount of methanol diluted in PBS as in case of LA and PA, respectively, or the same amount of DMSO diluted in PBS as in case of the other commercially available fatty acids. […] The assay was run at 37 °C. The absorption was measured at the beginning of the reaction and then every hour at 405 nm after 3 sec of shaking on a Tecan Sunrise ELISAReader using Magellan software. Each experiment was repeated three times. IC50 values were calculated using Microsoft® Excel software.
# [3] = molecular target: T1, staphylokinase (Staphylococcus aureus, UniProt P68801); experiment: Plasminogen assay with staphylokinase as activator of plasminogen; type: biochemical; conditions: staphylokinase 2 µg/ml; compared to untreated control
# T1 construct: purchased Cedarlane Labs
# T1 sequence (P68801 28-163): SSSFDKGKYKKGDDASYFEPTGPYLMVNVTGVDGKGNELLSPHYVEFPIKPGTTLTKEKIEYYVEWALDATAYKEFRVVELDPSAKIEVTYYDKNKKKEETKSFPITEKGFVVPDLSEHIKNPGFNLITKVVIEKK
# Description: Supernatant of an overnight culture of the GAS strain A614 was used as this strain secretes a cluster 2a type streptokinase. 75 µl of the culture supernatant was added to the wells of a 96well plate followed by 69 µl PBS, 5 µl S-2251 (10 mM stock solution, chromogenic substrate for the detection of plasmin, Chromogenix) and 1 µl plasminogen (1 mg/ml stock solution, Biopur or Sigma). 1 µl of each myxobacterial extract or each myxobacterial compound (dissolved in methanol, 1 mM) was added to test possible inhibition of plasminogen activation. The assay was run at 37 °C. The absorption was measured at the beginning of the reaction and then every hour at 405 nm after 3 sec of shaking on a Tecan Sunrise ELISA Reader using Magellan software. The reaction was finished when untreated samples had reached an OD405nm of about 1.
# The assay was conducted as described above using staphylokinase (Cedarlane Labs) as an activator of plasminogen (staphylokinase final concentration 2 µg/ml per well in 75 µl of PBS. Stocks of LA and PA were prepared in methanol and then diluted in PBS. The untreated control received the same amount of methanol diluted in PBS as in case of treatment with PA or LA. Each experiment was repeated three times.
Structure (SMILES),Hazard ratio (Mantel-Haenszel) treated/untreated [1],survival time in comparison with the untreated group [1],IC50 [2],fold lower IC50-values than TXA and EACA [2],inhibition of staphylokinase-mediated plasminogen activation [3]
"CCCCC/C=C\C/C=C\CCCCCCCC(=O)O [LA, linoleic acid]",0.1429,significantly extended the survival time,46.6 µM and 46 µM,500–1000 fold,not inhibited
"CCCCCC/C=C\CCCCCCCC(=O)O [PA, palmitoleic acid]",0.1429,significantly extended the survival time,40.9 µM,500–1000 fold,not inhibited
